Usually melting point stands for the temperature of the solid-liquid transition.

The source of these data is patent US10052320B2, “Substituted quinoxalines as FGFR kinase inhibitors” (ASTEX THERAPEUTICS LIMITED, priority 2011, dated 2018).

Series [1] deals with T1, Ba/F3-Flt3-transfected cells (Homo sapiens, UniProt P36888, cells depend on it, form not given).
T1 sequence (P36888 1-993): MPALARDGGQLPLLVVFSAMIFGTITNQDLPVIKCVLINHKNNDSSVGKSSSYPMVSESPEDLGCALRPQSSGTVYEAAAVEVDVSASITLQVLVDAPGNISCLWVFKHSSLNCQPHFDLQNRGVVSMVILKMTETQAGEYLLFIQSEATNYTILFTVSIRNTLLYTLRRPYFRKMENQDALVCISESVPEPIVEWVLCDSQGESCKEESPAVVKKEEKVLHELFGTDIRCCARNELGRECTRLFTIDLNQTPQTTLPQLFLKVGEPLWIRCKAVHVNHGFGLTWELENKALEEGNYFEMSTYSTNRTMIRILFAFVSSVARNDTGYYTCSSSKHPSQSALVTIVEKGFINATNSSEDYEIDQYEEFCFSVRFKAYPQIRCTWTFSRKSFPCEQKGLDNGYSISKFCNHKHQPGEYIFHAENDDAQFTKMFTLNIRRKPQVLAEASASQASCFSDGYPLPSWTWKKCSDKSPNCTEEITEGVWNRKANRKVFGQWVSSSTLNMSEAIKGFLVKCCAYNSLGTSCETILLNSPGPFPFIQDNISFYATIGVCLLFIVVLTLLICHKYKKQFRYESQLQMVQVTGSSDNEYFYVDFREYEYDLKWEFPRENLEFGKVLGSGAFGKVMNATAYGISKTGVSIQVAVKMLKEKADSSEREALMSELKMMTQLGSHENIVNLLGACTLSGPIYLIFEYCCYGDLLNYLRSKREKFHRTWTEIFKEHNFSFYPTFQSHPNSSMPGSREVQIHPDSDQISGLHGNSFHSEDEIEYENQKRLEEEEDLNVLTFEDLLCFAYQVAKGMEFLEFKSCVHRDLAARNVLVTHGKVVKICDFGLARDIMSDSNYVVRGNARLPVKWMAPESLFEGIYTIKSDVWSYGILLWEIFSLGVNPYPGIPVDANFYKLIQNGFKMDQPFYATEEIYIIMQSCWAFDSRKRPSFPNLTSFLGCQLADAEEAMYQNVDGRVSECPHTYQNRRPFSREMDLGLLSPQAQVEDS
Put plainly: Ba/F3-Flt3 (minus IL3) cellular proliferation assay, Alamar Blue. It counts as cell-based. A general note: Alamar Blue is a resazurin reagent that responds to reducing activity.

The subject of series [2] is Ba/F3-FGFR3-transfected cells in the presence of 10 ng/ml murine IL3. Kind of series: Ba/F3-FGFR3 (plus IL3) cellular proliferation counterscreen, Alamar Blue. Type of series: cell-based. The settings on record: Mus musculus. In short, it runs like this:
(§1)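 FGFR3-Ba/F3 cells, 20000/well (384-well) or 10000/well (96-well), phenol red free RPMI + 10% FBS; cpd in DMSO; 24 h, 37 °C/5% CO2; Alamar Blue 4 h; RFU ex540/em590.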
For orientation: The purpose of a counterscreen is to sort out artefacts and off-target activity.

The target in series [3] is Ba/F3-FGFR3-transfected cells (Homo sapiens, UniProt P22607). Put plainly: Ba/F3-FGFR3 (minus IL3) cellular proliferation assay, Alamar Blue. The settings on record: for BAF3-FGFR 3 (MIN IL3) 384 well pIC50: minus IL3, 384 well; for BAF3-FGFR 3 (MIN IL3) 96 well pIC50: minus IL3, 96 well. It counts as cell-based. Put shortly:
as §1

Another series has as its target FGFR4 (h) (Homo sapiens, UniProt P22455). Kind of series: FGFR4 (enzymatic assay), TR-FRET. It counts as biochemical. The settings on record: read-out: FGFR 4 pIC50 (converted). As for the experimental part: In a final reaction volume of 30 μL, FGFR4 (h) (60 ng/ml) was incubated with 50 mM HEPES pH 7.5, 6 mM MnCl2, 1 mM DTT, 0.1 mM Na3VO4, 0.01% Triton-X-100, 500 nM Btn-Flt3 and 5 μM ATP in the presence of compound (1% DMSO final). […] Time-Resolved Fluorescence Resonance Energy Transfer (TR-FRET) signal (ex340 nm. Em 620 nm, em 655 nm) was measured afterwards and results are expressed in RFU (Relative Fluorescence Units).

Setting [4] is: plus 10 ng/ml murine IL3, 384 well, read-out: BAF3-FGFR 3 (PLUS IL3) 384 well pIC50 (converted).
Setting [5] is: plus IL3, 96 well, read-out: BAF3-FGFR 3 (PLUS IL3) 96 well pIC50 (converted).

SMILES strings stand for the structures. Like-named read-outs stand apart in the source and are kept apart here.

FGFR4 (h), sequence (P22455 22-802): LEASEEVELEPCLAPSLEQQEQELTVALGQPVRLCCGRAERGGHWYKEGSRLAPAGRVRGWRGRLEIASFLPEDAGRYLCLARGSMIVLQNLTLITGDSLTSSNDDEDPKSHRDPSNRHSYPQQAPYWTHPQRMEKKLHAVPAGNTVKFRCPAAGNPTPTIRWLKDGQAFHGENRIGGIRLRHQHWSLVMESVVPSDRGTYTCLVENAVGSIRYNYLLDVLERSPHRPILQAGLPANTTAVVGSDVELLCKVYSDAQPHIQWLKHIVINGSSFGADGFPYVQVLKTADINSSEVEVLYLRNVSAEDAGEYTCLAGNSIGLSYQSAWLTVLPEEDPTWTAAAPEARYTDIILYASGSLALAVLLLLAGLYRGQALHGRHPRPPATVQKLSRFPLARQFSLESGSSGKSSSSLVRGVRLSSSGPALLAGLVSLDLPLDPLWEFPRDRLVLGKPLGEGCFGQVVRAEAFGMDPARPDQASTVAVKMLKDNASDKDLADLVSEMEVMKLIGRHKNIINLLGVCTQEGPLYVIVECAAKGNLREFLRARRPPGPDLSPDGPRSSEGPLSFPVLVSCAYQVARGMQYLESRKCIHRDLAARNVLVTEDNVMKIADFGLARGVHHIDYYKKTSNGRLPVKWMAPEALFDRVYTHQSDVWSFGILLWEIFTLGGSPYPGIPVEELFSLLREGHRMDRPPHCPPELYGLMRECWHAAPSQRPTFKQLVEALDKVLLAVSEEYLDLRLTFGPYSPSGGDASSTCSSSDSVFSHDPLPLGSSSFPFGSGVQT
Ba/F3-FGFR3-transfected cells, sequence (P22607 whole entry, change not shown): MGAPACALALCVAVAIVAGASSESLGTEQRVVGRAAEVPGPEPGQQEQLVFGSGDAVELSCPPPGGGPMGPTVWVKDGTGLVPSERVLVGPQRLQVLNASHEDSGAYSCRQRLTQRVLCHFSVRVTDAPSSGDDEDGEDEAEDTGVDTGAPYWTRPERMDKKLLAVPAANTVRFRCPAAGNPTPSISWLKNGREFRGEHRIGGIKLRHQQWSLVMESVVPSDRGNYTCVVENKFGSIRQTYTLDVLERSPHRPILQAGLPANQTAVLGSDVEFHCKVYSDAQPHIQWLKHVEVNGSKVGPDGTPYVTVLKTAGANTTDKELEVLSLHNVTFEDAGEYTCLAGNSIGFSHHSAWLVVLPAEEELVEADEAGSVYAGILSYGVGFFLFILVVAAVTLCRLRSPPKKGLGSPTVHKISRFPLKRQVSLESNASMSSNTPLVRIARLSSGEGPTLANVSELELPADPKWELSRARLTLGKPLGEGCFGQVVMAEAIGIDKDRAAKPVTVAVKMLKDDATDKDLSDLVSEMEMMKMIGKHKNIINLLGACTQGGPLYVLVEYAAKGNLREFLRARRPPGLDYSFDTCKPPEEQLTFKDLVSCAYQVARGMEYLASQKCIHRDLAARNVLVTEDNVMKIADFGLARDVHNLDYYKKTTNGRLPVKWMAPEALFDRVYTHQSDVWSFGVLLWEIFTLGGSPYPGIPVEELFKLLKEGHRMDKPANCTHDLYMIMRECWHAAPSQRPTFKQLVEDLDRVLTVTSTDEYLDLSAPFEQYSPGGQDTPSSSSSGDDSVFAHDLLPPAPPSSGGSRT

In turn, `COc1cc(OC)cc(N(CCN2CCN(C(C)=O)CC2)c2ccc3ncc(-c4ccc(N)nc4)nc3c2)c1` [Compound 68] came in with a melting point of 167 °C. For the same compound, the “BAF3-FLT3 (MIN IL3) 384 well pIC50” value in series [1] (minus IL3) was less than 5. Moreover, the IC50 in series [2] (setting [4]) is more than 10 µM. For the same compound, the “BAF3-FGFR 3 (MIN IL3) 384 well pIC50” value in series [3] is on record as approximately 6.15. Moreover, the IC50 at FGFR4 (h) is 0.282 µM.

The compound `COc1cc(OC)cc(N(CCO)c2ccc3ncc(-c4ccc(N5CCNCC5)cc4)nc3c2)c1` [Compound 166] yielded a melting point of 194 °C. Moreover, the “BAF3-FLT3 (MIN IL3) 384 well pIC50” value in series [1] (minus IL3) is recorded as 5.46. In addition, the IC50 in series [2] (setting [4]) was approximately 6.03 µM. In addition, the “BAF3-FGFR 3 (MIN IL3) 384 well pIC50” value in series [3] is approximately 6.1. In addition, on FGFR4 (h), the IC50 is 0.00724 µM.

In the case of `COCC(O)CN(c1cc(OC)cc(OC)c1)c1ccc2ncc(-c3cccnc3)nc2c1` (single isomer, unassigned) [Compound 46], the melting point came out at 154 °C. Also, in series [1] (minus IL3), the “BAF3-FLT3 (MIN IL3) 384 well pIC50” value is reported as less than 5. Further, in series [2] (setting [4]), the IC50 was more than 10 µM. Further, the “BAF3-FGFR 3 (MIN IL3) 384 well pIC50” value in series [3] is reported as 6.65. Besides, the IC50 at FGFR4 (h) is 0.0479 µM.

In the case of `COc1cc(OC)cc(N(CC2CC2)c2ccc3ncc(-c4ccnc(N5CCOCC5)c4)nc3c2)c1` [Compound 90], the melting point turned out to be 162 °C. Besides, the “BAF3-FLT3 (MIN IL3) 96 well pIC50” value in series [1] (minus IL3, 96 well) was less than 5. In addition, in series [2] (setting [5]), the IC50 was more than 10 µM. The “BAF3-FGFR 3 (MIN IL3) 96 well pIC50” value in series [3] came to 5.09. Besides, the IC50 on FGFR4 (h) was more than 10 µM.

On to `COc1cc(OC)cc(N(CC2CC2)c2ccc3ncc(NC(=O)c4ccc(F)cc4)nc3c2)c1` [Compound 28], for which the melting point came to 135 °C. In series [1] (minus IL3), the “BAF3-FLT3 (MIN IL3) 96 well pIC50” value is less than 5 and the “BAF3-FLT3 (MIN IL3) 384 well pIC50” value is less than 5. Moreover, the IC50 in series [2] (setting [4]) is more than 10 µM. For the same compound, the IC50 in series [2] (setting [5]) was more than 10 µM. In series [3], the “BAF3-FGFR 3 (MIN IL3) 96 well pIC50” value was less than 5 and the “BAF3-FGFR 3 (MIN IL3) 384 well pIC50” value is less than 5. The IC50 at FGFR4 (h) was more than 10 µM.

Compound `COc1cc(OC)cc(N(CCCNCC(F)(F)F)c2ccc3ncc(-c4ccnc(C(=O)NCCCCCO)c4)nc3c2)c1` [Compound 150] yielded a melting point of 95 °C. In addition, the “BAF3-FLT3 (MIN IL3) 384 well pIC50” value in series [1] (minus IL3) is less than 5. Also, the IC50 in series [2] (setting [4]) was more than 10 µM. Besides, the “BAF3-FGFR 3 (MIN IL3) 384 well pIC50” value in series [3] is 5.11. Also, the IC50 on FGFR4 (h) was 0.224 µM.
